Measured values: patent publication US20250084080A1, “CRYSTALLINE AND SALT FORMS OF AN NLRP3 INHIBITOR” (BioAge Labs, Inc., priority 2023, published 2025)

Tests used:
Assay type in all cases: physicochemical
[1] = Bulk stability (solid state, 1 week; HPLC, XRPD, IC, color); parameters: key to CL (color): A: no change of color; B: slight discoloration; C: medium discoloration; D: strong discoloration; settings: for Bulk (HPLC) Purity / Bulk (XRPD) / CL (color) / Stoichiometry by IC (Free form:HCl = 1:x): Solid state
Experimental: Bulk stability of free form Pattern B was evaluated at 25° C./92.5% RH in an open container, at 40° C./75% RH in an open container and at 60° C. in a tight container over 1 week.

[2] = Solubility at 37° C. in buffers and biorelevant media, XRPD of residual solid; settings: for solubility at 2 h / solubility at 24 h: thermodynamic from solid
Experimental: Solubility of BAL-0748 free form Pattern B was investigated in pH 1.2 HCl buffer, pH 4.5 50 mM acetate buffer, pH 6.8 50 mM phosphate buffer, water, pH 1.6 FaSSGF, pH 6.5 FaSSIF-v1, pH 5.0 FeSSIF-v1 and 2% HPMC+1% Pluronic F68 in pH 4.5 50 mM acetate buffer at 37° C. for 2 h and 24 h. Residual solids after the solubility test were analyzed by XRPD.
Solubility of the free form Pattern A, the HCl salt Pattern A, the phosphate salt Pattern A, and the sodium salt Pattern A was measured in pH 1.2 HCl buffer, pH 4.5 acetate buffer (50 mM), pH 6.8 phosphate buffer (50 mM), water, pH 1.6 FaSSGF, pH 6.5 FaSSIF-v1, pH 5.0 FeSSIF-v1, and 2% HPMC+1% Pluronic F68 in pH 4.5 acetate buffer (50 mM) at 37° C. for 2 hours and 24 hours.
10.4 mg of the free form Pattern A, 10.0 mg of the free form Pattern B, 10.8 mg of the HCl salt Pattern A, 12.2 mg of the phosphate salt Pattern A, or 10.5 mg of the sodium salt Pattern A was weighed into a 20 mL glass vial, respectively. 5 mL of solubility medium was added. The salt amount used was equivalent to 10 mg anhydrous free form. Obtained suspensions were stirred at 37° C. at 400 rpm and sampled at 2 hours and at 24 hours. The samples were centrifuged at 37° C. at 14,000 rpm for 5 min. Supernatants were analyzed by HPLC and PH meter for solubility and pH value, respectively. Residual solids (wet cakes) from the 24 hours samples were also characterized by XRPD to determine physical form.

[3] = Hygroscopicity by dynamic vapor sorption (DVS) at 25° C.; settings: for Desorp. (%) / Sorp. (%): DVS 25° C.
Experimental: Dynamic vapor sorption (DVS) was performed on an Intrinsic, Advantage or Adventure with an oven temperature of 25° C. using water as a solvent. The sample mass was about 5-10 mg using the following method: • Cycle: 40-0-95-0-40% RH • Stage Step: 10% • Equilibrium: 0.002 dm/dt (%/min) • Minimum dm/dt stability duration: 60 min • Maximum dm/dt stage time: 360 min. Hygroscopicity of free form Pattern B was evaluated by dynamic vapor sorption (DVS) test at 25° C. […] It absorbed about 0.8% water at 80% RH at 25° C.

[4] = 25° C./92.5% RH open, 40° C./75% RH open, 60° C. tight container
[5] = aqueous buffer, pH 4.5 acetate buffer (50 mM), 37° C.
[6] = aqueous buffer, pH 6.8 phosphate buffer (50 mM), 37° C.
[7] = aqueous with cosolvent or surfactant or cyclodextrin, 2% HPMC + 1% Pluronic F68 in pH 4.5 acetate buffer (50 mM), 37° C.
[8] = fassgf or other biorelevant, FaSSGF, pH 1.6, 37° C.
[9] = simulated gastric fluid, pH 1.2 HCl buffer, 37° C.

CCOc1cc(C(=O)N(C)Cc2cnc(CO)c3cn[nH]c23)ccc1-c1cc(F)cc(F)c1.Cl [HCl salt Pattern A, 2-ethoxy-3′,5′-difluoro-N-((4-(hydroxymethyl)-1H-pyrazolo[4,3-c]pyridin-7-yl)methyl)-N-methyl-[1,1′-biphenyl]-4-carboxamide hydrochloric acid salt]
Bulk stability, chemical and physical [1, 4]: chemically and physically stable | Degradation by HPLC [1, 4]: no obvious degradation | Form change by XRPD [1, 4]: no form change | Bulk (HPLC) Purity ([1]; 25° C./92.5% RH, open): 99.1% | Bulk (XRPD) ([1]; 25° C./92.5% RH, open): No form change | CL (color) ([1]; 25° C./92.5% RH, open): A | Stoichiometry by IC (Free form:HCl = 1:x) ([1]; 25° C./92.5% RH, open): 0.97 | Bulk (HPLC) Purity ([1]; 40° C./75% RH, open): 98.9% | Bulk (XRPD) ([1]; 40° C./75% RH, open): No form change | CL (color) ([1]; 40° C./75% RH, open): A | Stoichiometry by IC (Free form:HCl = 1:x) ([1]; 40° C./75% RH, open): 0.99 | Bulk (HPLC) Purity ([1]; 60° C., closed): 98.9% | Bulk (XRPD) ([1]; 60° C., closed): No form change | CL (color) ([1]; 60° C., closed): A | Stoichiometry by IC (Free form:HCl = 1:x) ([1]; 60° C., closed): 0.97 | pH of supernatant at 24 h ([2]; 2% HPMC + 1% Pluronic F68 in pH 4.5 acetate buffer (50 mM), 37° C.): (4.4) | Solubility compared with the free form Pattern A ([2]; 2% HPMC+1% Pluronic F68 in acetate buffer (pH 4.5)): comparable solubility | pH of supernatant at 24 h ([2]; FaSSGF, pH 1.6, 37° C.): (1.5) | pH of supernatant at 24 h ([2]; FaSSIF-v1, pH 6.5, 37° C.): (6.3) | pH of supernatant at 24 h ([2]; FeSSIF-v1, pH 5.0, 37° C.): (4.9) | pH of supernatant at 24 h ([2]; Water, 37° C.): (2.5) | solubility at 2 h [2, 5]: 14.4 µg/mL | solubility at 24 h [2, 5]: 10 µg/mL | solubility at 2 h [2, 6]: 3.3 µg/mL | solubility at 24 h [2, 6]: 2.3 µg/mL | solubility at 2 h [2, 7]: 29.5 µg/mL | solubility at 24 h [2, 7]: 26.7 µg/mL | solubility at 2 h [2, 8]: 556 µg/mL | solubility at 24 h [2, 8]: 522 µg/mL | pH of supernatant at 24 h ([2]; pH 1.2 HCl buffer, 37° C.): (1.2) | pH of supernatant at 24 h ([2]; pH 4.5 acetate buffer (50 mM), 37° C.): (4.3) | Higher solubility compared with the free form Pattern A ([2]; pH 5.0 FeSSIF-v1, 2 h): 1 fold | pH of supernatant at 24 h ([2]; pH 6.8 phosphate buffer (50 mM), 37° C.): (6.7) | Solubility compared with the free form Pattern A ([2]; pure water): obviously higher solubility | solubility at 2 h [2, 9]: 362 µg/mL | solubility at 24 h [2, 9]: 277 µg/mL | solubility at 2 h ([2]; FaSSIF-v1, pH 6.5, 37° C.): 11.8 µg/mL | solubility at 24 h ([2]; FaSSIF-v1, pH 6.5, 37° C.): 8.4 µg/mL | solubility at 2 h ([2]; FeSSIF-v1, pH 5.0, 37° C.): 238 µg/mL | solubility at 24 h ([2]; FeSSIF-v1, pH 5.0, 37° C.): 151 µg/mL | solubility at 2 h ([2]; Water, 37° C.): 568 µg/mL | solubility at 24 h ([2]; Water, 37° C.): 504 µg/mL | Desorp. (%) ([3]; 0% RH, 1st desorption): 0.51% | Sorp. (%) ([3]; 0% RH, 1st sorption): 0.51% | Desorp. (%) ([3]; 0% RH, 2nd desorption): 0.15% | Sorp. (%) ([3]; 0% RH, 2nd sorption): 0.15% | Desorp. (%) ([3]; 10% RH, 1st desorption): 0.61% | Sorp. (%) ([3]; 10% RH, 1st sorption): 0.61% | Desorp. (%) ([3]; 10% RH, 2nd desorption): 0.24% | Sorp. (%) ([3]; 10% RH, 2nd sorption): 0.20% | Desorp. (%) ([3]; 20% RH, 1st desorption): 0.65% | Sorp. (%) ([3]; 20% RH, 1st sorption): 0.68% | Desorp. (%) ([3]; 20% RH, 2nd desorption): 0.28% | Sorp. (%) ([3]; 20% RH, 2nd sorption): 0.24% | Desorp. (%) ([3]; 30% RH, 1st desorption): 0.69% | Sorp. (%) ([3]; 30% RH, 1st sorption): 0.78% | Desorp. (%) ([3]; 30% RH, 2nd desorption): 0.35% | Sorp. (%) ([3]; 30% RH, 2nd sorption): 0.27% | Desorp. (%) ([3]; 40% RH, 1st desorption): 0.72% | Sorp. (%) ([3]; 40% RH, 1st sorption): 0.75% | Desorp. (%) ([3]; 40% RH, 2nd desorption): 0.42% | Sorp. (%) ([3]; 40% RH, 2nd sorption): 0.29% | Sorp. (%) ([3]; 50% RH, 1st sorption): 0.80% | Desorp. (%) ([3]; 50% RH, 2nd desorption): 0.54% | Sorp. (%) ([3]; 60% RH, 1st sorption): 0.85% | Desorp. (%) ([3]; 60% RH, 2nd desorption): 0.68% | Sorp. (%) ([3]; 70% RH, 1st sorption): 0.96% | Desorp. (%) ([3]; 70% RH, 2nd desorption): 0.84% | Sorp. (%) ([3]; 80% RH, 1st sorption): 1.00% | Desorp. (%) ([3]; 80% RH, 2nd desorption): 1.07% | Sorp. (%) ([3]; 90% RH, 1st sorption): 1.37% | Desorp. (%) ([3]; 90% RH, 2nd desorption): 1.54% | Sorp. (%) ([3]; 95% RH, 1st sorption): 2.20% | Desorp. (%) ([3]; 95% RH, 2nd desorption): 2.20% | XRPD after DVS test ([3]; DVS at 25° C.): No form change | Water absorbed at 80% RH ([3]; DVS at 25° C., 80% RH): It absorbed 1.0%
